Experimental data reported in patent US20240174618A1, “SUBSTITUTED (2-HETEROARYLOXYPHENYL)SULFONATES, SALTS THEREOF AND THEIR USE AS HERBICIDAL AGENTS” (Bayer Aktiengesellschaft, priority 2021, published 2024).

Experiments:
Assay type in all cases: in vivo
Setaria viridis (SETVI) [1] = test: A. Herbicidal pre-emergence efficacy, SETVI
How it was run: (§1)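 Pre-emergence soil-surface spray in sandy loam pots, WP/EC in water plus 0.5% additive, 600 L/ha. Visual % damage rating after about 3 weeks in greenhouse vs. untreated; 0% = control-like, 100% = dead plants. Rates up to 1280 g/ha.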

Poa annua (POAAN) = test: A. Herbicidal pre-emergence efficacy, POAAN
How it was run: as §1

[2] = test system: Echinochloa crus-galli (ECHCG); test: C. Herbicidal pre-emergence efficacy, ECHCG; details: scored after about 3 weeks
How it was run: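 Pre-emergence test: formulated compounds sprayed as aqueous suspension or emulsion with 0.5% additive at 600 l/ha onto soil covering sown seeds, at rates corresponding to 320 g/ha or less. After about 3 weeks in greenhouse, efficacy scored visually as percent versus untreated controls (100% = plants dead).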

Setaria viridis (SETVI) [3] = test: B. Herbicidal post-emergence efficacy, SETVI
How it was run: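 Post-emergence greenhouse test: one-leaf-stage plants, compound (WP/EC, +0.5% additive, 600 L/ha water, ≤1280 g/ha) applied to green parts; % efficacy scored visually vs untreated after ~3 wk; 100% = plants died.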

[4] = test system: Digitaria sanguinalis (DIGSA); test: A. Herbicidal pre-emergence efficacy, DIGSA; details: scored visually after about 3 weeks vs untreated controls
How it was run: as §1

[5] = test system: Amaranthus retroflexus (AMARE); test: E. Herbicidal post-emergence efficacy, AMARE
How it was run: (§2)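 Greenhouse weeds were treated post-emergence at the one-leaf stage, 2-3 weeks after sowing in sandy loam, with WP or EC formulations sprayed as aqueous suspension/emulsion plus 0.5% additive at 600 l/ha, at 320 g/ha or less. Efficacy was rated visually after about 3 weeks versus untreated controls (100% = dead, 0% = like control).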

[6] = test system: Pharbitis purpurea (PHBPU); test: E. Herbicidal post-emergence efficacy, PHBPU
How it was run: as §2

Kochia scoparia (KCHSC) = test: E. Herbicidal post-emergence efficacy, KCHSC
Experimental: Seeds of monocotyledonous and dicotyledonous weeds and crop plants were placed in sandy loam in plastic or organic planting pots, covered with soil and cultivated in a greenhouse under controlled growth conditions. 2 to 3 weeks after sowing, the test plants were treated at the one-leaf stage. The compounds of the invention, formulated in the form of wettable powders (WP) or as emulsion concentrates (EC), were then sprayed onto the green parts of the plants as aqueous suspension or emulsion with addition of 0.5% additive at a water application rate of 600 l/ha (converted). After the test plants had been kept in the greenhouse under optimum growth conditions for about 3 weeks, the activity of the preparations was rated visually in comparison to untreated controls.
For example, • 100% efficacy=plants have died, • 0% action=like untreated control plants.
Tables E1a to E12b below show the effects of selected compounds of the general formula (I) according to table 1 on various harmful plants at an application rate corresponding to 320 g/ha or less, which were obtained by the experimental procedure mentioned above.

Structure (SMILES)	Pre-emergence efficacy against SETVI (Setaria viridis (SETVI) [1]; dosage 1280 g/ha) [%]	Pre-emergence efficacy against POAAN (Poa annua (POAAN); dosage 80 g/ha) [%]	Pre-emergence efficacy against POAAN (Poa annua (POAAN); dosage 320 g/ha) [%]	Pre-emergence efficacy against POAAN (Poa annua (POAAN); dosage 1280 g/ha) [%]	Pre-emergence efficacy against ECHCG ([2]; 80 g/ha) [%]	Pre-emergence efficacy against ECHCG ([2]; 320 g/ha) [%]	Post-emergence efficacy against SETVI (Setaria viridis (SETVI) [3]; 1280 g/ha) [%]	Pre-emergence efficacy against DIGSA ([4]; 80 g/ha) [%]	Pre-emergence efficacy against DIGSA ([4]; 320 g/ha) [%]	Pre-emergence efficacy against DIGSA ([4]; 1280 g/ha) [%]	Post-emergence efficacy against AMARE in % ([5]; application rate 80 g/ha) [%]	Post-emergence efficacy against AMARE in % ([5]; application rate 320 g/ha) [%]	Post-emergence efficacy against PHBPU in % ([6]; application rate 320 g/ha) [%]	Pre-emergence efficacy against SETVI (Setaria viridis (SETVI) [1]; dosage 320 g/ha) [%]	Post-emergence efficacy against SETVI (Setaria viridis (SETVI) [3]; 320 g/ha) [%]	Post-emergence efficacy against PHBPU in % ([6]; application rate 80 g/ha) [%]	Post-emergence efficacy against KCHSC in % (Kochia scoparia (KCHSC); application rate 80 g/ha) [%]	Post-emergence efficacy against KCHSC in % (Kochia scoparia (KCHSC); application rate 320 g/ha) [%]	Pre-emergence efficacy against SETVI (Setaria viridis (SETVI) [1]; dosage 80 g/ha) [%]
O=S(=O)(CC1CC1)Oc1ccccc1Oc1ncc(Cl)cn1 [Example I-23]	100	90	90	90	100	100	100	90	100	100	100	100	100	–	–	–	–	–	–
CCCCCS(=O)(=O)Oc1ccccc1Oc1ncc(Cl)cn1 [Example I-24]	100	–	100	100	–	100	90	–	100	100	90	100	80	100	–	–	–	–	–
CC(C)CCS(=O)(=O)Oc1ccccc1Oc1ncc(Cl)cn1 [Example I-25]	100	–	100	100	100	100	90	90	100	100	–	90	90	100	90	80	–	–	–
O=S(=O)(CCC(F)(F)F)Oc1c(Cl)cccc1Oc1ncc(Br)cn1 [Example I-32]	100	–	90	90	–	90	100	–	90	90	100	100	80	90	90	80	90	100	–
O=S(=O)(CCCC(F)(F)F)Oc1c(Cl)cccc1Oc1ncc(Br)cn1 [Example I-34]	100	–	90	90	–	90	90	–	–	90	100	100	100	90	–	80	100	100	90
C=CCS(=O)(=O)Oc1ccccc1Oc1ncc(Cl)cn1 [Example I-36]	100	–	–	90	–	80	90	–	90	100	–	–	–	–	–	–	–	90	–
O=S(=O)(CCCC(F)(F)F)Oc1c(F)cccc1Oc1ncc(F)cn1 [Example I-42]	100	100	100	100	100	100	–	100	100	100	100	100	100	100	–	100	90	90	100
O=S(=O)(CCC(F)(F)F)Oc1c(Br)cccc1Oc1ncc(F)cn1 [Example I-43]	100	–	100	100	–	90	–	–	100	100	100	100	90	100	–	80	90	100	–
Cc1cccc(Oc2ncc(F)cn2)c1OS(=O)(=O)CCC(F)(F)F [Example I-45]	100	90	100	100	100	100	–	90	100	100	–	80	–	100	–	–	–	90	90
Cc1cccc(Oc2ncc(F)cn2)c1OS(=O)(=O)CCCC(F)(F)F [Example I-46]	100	90	100	100	90	100	–	90	100	100	–	90	90	100	–	80	–	100	90
O=S(=O)(CCC(F)(F)F)Oc1c(F)cccc1Oc1ncc(F)cn1 [Example I-47]	100	100	100	100	100	100	–	100	100	100	100	100	100	100	–	90	100	100	100
COCCS(=O)(=O)Oc1c(F)cccc1Oc1ncc(Cl)cn1 [Example I-52]	100	–	90	100	100	100	90	–	90	100	–	100	–	100	–	–	90	100	–
O=S(=O)(CCC(F)=C(F)F)Oc1c(F)cccc1Oc1ncc(Cl)cn1 [Example I-70]	–	–	–	–	90	100	–	–	–	–	100	100	100	–	–	80	90	100	–
O=S(=O)(CCC(F)=C(F)F)Oc1c(Cl)cccc1Oc1ncc(Cl)cn1 [Example I-73]	100	–	90	100	–	90	90	–	90	100	80	100	–	90	–	–	90	90	–
N#Cc1cccc(Oc2ncc(Cl)cn2)c1OS(=O)(=O)CCCC(F)(F)F [Example I-81]	–	–	–	–	–	100	–	–	–	–	100	100	100	–	–	90	100	100	–
